Measured values: patent US12077503B2, “Substituted cyclic amides and their use as herbicides” (FMC CORPORATION, priority 2015, dated 2024)

How the values were obtained:
Experiment in all cases: Test C preemergence
Format in all cases: in vivo
[1] = tested on: blackgrass (Alopecurus myosuroides); details: for Plant response rating, Blackgrass: scale 0 to 100, 0 no effect, 100 complete control
In short: (§1)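 Assessment: visual, 13–15 d after treatment, 0 (no effect) to 100 (complete control) relative to controls. Treatment: preemergence to seeds in loam-sand soil, or postemergence to 1- to 4-leaf plants in peat-based medium. Formulation: non-phytotoxic solvent mixture with surfactant.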

soybean (Glycine max) = details: for Plant response rating, Soybean: scale 0 to 100, 0 no effect, 100 complete control
In short: as §1

corn (Zea mays) = details: for Plant response rating, Corn: scale 0 to 100, 0 no effect, 100 complete control
In short: as §1

[2] = tested on: morningglory (Ipomoea coccinea); details: for Plant response rating, Morningglory: scale 0 to 100, 0 no effect, 100 complete control
In short: as §1

[3] = tested on: lambsquarters (Chenopodium album); details: for Plant response rating, Lambsquarters: scale 0 to 100, 0 no effect, 100 complete control
In short: as §1

[4] = tested on: foxtail, giant (giant foxtail, Setaria faberii); details: for Plant response rating, Foxtail, Giant: scale 0 to 100, 0 no effect, 100 complete control
In short: as §1

[5] = tested on: crabgrass, large (large crabgrass, Digitaria sanguinalis); details: for Plant response rating, Crabgrass, Large: scale 0 to 100, 0 no effect, 100 complete control
In short: as §1

[6] = tested on: johnsongrass (Sorghum halepense); details: for Plant response rating, Johnsongrass: scale 0 to 100, 0 no effect, 100 complete control
In short: as §1

[7] = tested on: pigweed (Amaranthus retroflexus); details: for Plant response rating, Pigweed: scale 0 to 100, 0 no effect, 100 complete control
In short: as §1

[8] = tested on: velvetleaf (Abutilon theophrasti); details: for Plant response rating, Velvetleaf: scale 0 to 100, 0 no effect, 100 complete control
In short: as §1

[9] = tested on: nutsedge, yellow (yellow nutsedge, Cyperus esculentus); details: for Plant response rating, Nutsedge, Yellow: scale 0 to 100, 0 no effect, 100 complete control
In short: as §1

[10] = tested on: barnyardgrass (Echinochloa crus-galli); details: for Plant response rating, Barnyardgrass: scale 0 to 100, 0 no effect, 100 complete control
In short: as §1

[11] = tested on: oilseed rape (Brassica napus); details: for Plant response rating, Oilseed Rape: scale 0 to 100, 0 no effect, 100 complete control
In short: as §1

[12] = tested on: Galium (catchweed bedstraw, Galium aparine); details: for Plant response rating, Galium: scale 0 to 100, 0 no effect, 100 complete control
In short: as §1

[13] = tested on: wheat (winter wheat, Triticum aestivum); details: for Plant response rating, Wheat: scale 0 to 100, 0 no effect, 100 complete control
In short: as §1

[14] = tested on: waterhemp (common waterhemp, Amaranthus rudis); details: for Plant response rating, Waterhemp: scale 0 to 100, 0 no effect, 100 complete control
In short: as §1

[15] = tested on: ryegrass, Italian (Italian ryegrass, Lolium multiflorum); details: for Plant response rating, Ryegrass, Italian: scale 0 to 100, 0 no effect, 100 complete control
In short: as §1

[16] = 31 g ai/ha, 0 is no effect, 100 is complete control

## O=C1NCC(c2cccc(OC(F)F)c2)C1C(=O)Nc1ccc(F)cc1F (centres unmarked) [Compound 421]
[1]; 31 g ai/ha
  Plant response rating, Blackgrass: 40
[1]; 62 g ai/ha
  Plant response rating, Blackgrass: 45
[1]; 125 g ai/ha
  Plant response rating, Blackgrass: 70
[1]; 250 g ai/ha
  Plant response rating, Blackgrass: 70
Soybean (Glycine max); 62 g ai/ha
  Plant response rating, Soybean: 0
Soybean (Glycine max); 125 g ai/ha
  Plant response rating, Soybean: 0
Soybean (Glycine max); 250 g ai/ha
  Plant response rating, Soybean: 10
Corn (Zea mays); 31 g ai/ha
  Plant response rating, Corn: 0
Corn (Zea mays); 62 g ai/ha
  Plant response rating, Corn: 0
Corn (Zea mays); 125 g ai/ha
  Plant response rating, Corn: 60
Corn (Zea mays); 250 g ai/ha
  Plant response rating, Corn: 75
[2]; 31 g ai/ha
  Plant response rating, Morningglory: 0
[2]; 62 g ai/ha
  Plant response rating, Morningglory: 0
[2]; 125 g ai/ha
  Plant response rating, Morningglory: 15
[2]; 250 g ai/ha
  Plant response rating, Morningglory: 20
[3]; 31 g ai/ha
  Plant response rating, Lambsquarters: 10
[3]; 62 g ai/ha
  Plant response rating, Lambsquarters: 35
[3]; 125 g ai/ha
  Plant response rating, Lambsquarters: 60
[3]; 250 g ai/ha
  Plant response rating, Lambsquarters: 70
[4]; 31 g ai/ha
  Plant response rating, Foxtail, Giant: 80
[4]; 62 g ai/ha
  Plant response rating, Foxtail, Giant: 85
[4]; 125 g ai/ha
  Plant response rating, Foxtail, Giant: 85
[4]; 250 g ai/ha
  Plant response rating, Foxtail, Giant: 90
[5]; 31 g ai/ha
  Plant response rating, Crabgrass, Large: 90
[5]; 62 g ai/ha
  Plant response rating, Crabgrass, Large: 95
[5]; 125 g ai/ha
  Plant response rating, Crabgrass, Large: 90
[5]; 250 g ai/ha
  Plant response rating, Crabgrass, Large: 95
[6]; 31 g ai/ha
  Plant response rating, Johnsongrass: 0
[6]; 62 g ai/ha
  Plant response rating, Johnsongrass: 0
[6]; 125 g ai/ha
  Plant response rating, Johnsongrass: 0
[6]; 250 g ai/ha
  Plant response rating, Johnsongrass: 0
[7]; 31 g ai/ha
  Plant response rating, Pigweed: 0
[7]; 62 g ai/ha
  Plant response rating, Pigweed: 0
[7]; 125 g ai/ha
  Plant response rating, Pigweed: 35
[7]; 250 g ai/ha
  Plant response rating, Pigweed: 60
[8]; 62 g ai/ha
  Plant response rating, Velvetleaf: 20
[8]; 125 g ai/ha
  Plant response rating, Velvetleaf: 20
[8]; 250 g ai/ha
  Plant response rating, Velvetleaf: 40
[9]; 31 g ai/ha
  Plant response rating, Nutsedge, Yellow: 0
[9]; 62 g ai/ha
  Plant response rating, Nutsedge, Yellow: 0
[9]; 125 g ai/ha
  Plant response rating, Nutsedge, Yellow: 0
[9]; 250 g ai/ha
  Plant response rating, Nutsedge, Yellow: 0
[10]; 31 g ai/ha
  Plant response rating, Barnyardgrass: 60
[10]; 62 g ai/ha
  Plant response rating, Barnyardgrass: 80
[10]; 125 g ai/ha
  Plant response rating, Barnyardgrass: 90
[10]; 250 g ai/ha
  Plant response rating, Barnyardgrass: 95
[11]; 31 g ai/ha
  Plant response rating, Oilseed Rape: 10
[11]; 62 g ai/ha
  Plant response rating, Oilseed Rape: 25
[11]; 125 g ai/ha
  Plant response rating, Oilseed Rape: 30
[11]; 250 g ai/ha
  Plant response rating, Oilseed Rape: 35
[12]; 31 g ai/ha
  Plant response rating, Galium: 0
[12]; 62 g ai/ha
  Plant response rating, Galium: 0
[12]; 125 g ai/ha
  Plant response rating, Galium: 55
[12]; 250 g ai/ha
  Plant response rating, Galium: 45
[13]; 62 g ai/ha
  Plant response rating, Wheat: 0
[13]; 125 g ai/ha
  Plant response rating, Wheat: 25
[13]; 250 g ai/ha
  Plant response rating, Wheat: 40
[14]; 62 g ai/ha
  Plant response rating, Waterhemp: 30
[14]; 125 g ai/ha
  Plant response rating, Waterhemp: 80
[14]; 250 g ai/ha
  Plant response rating, Waterhemp: 85
[15]; 62 g ai/ha
  Plant response rating, Ryegrass, Italian: 40
[15]; 125 g ai/ha
  Plant response rating, Ryegrass, Italian: 35
[15]; 250 g ai/ha
  Plant response rating, Ryegrass, Italian: 65

## O=C1NCC(c2cccc(OC(F)(F)C(F)F)c2)C1C(=O)Nc1cccc(F)c1F (racemic) [Compound 697]
[1]; [16]
  Plant response rating (scale of 0 to 100), Blackgrass: 70
[1]; 62 g ai/ha
  Plant response rating, Blackgrass: 75
[1]; 125 g ai/ha
  Plant response rating, Blackgrass: 90
[1]; 250 g ai/ha
  Plant response rating, Blackgrass: 90
Soybean (Glycine max); [16]
  Plant response rating (scale of 0 to 100), Soybean: 0
Soybean (Glycine max); 62 g ai/ha
  Plant response rating, Soybean: 10
Soybean (Glycine max); 125 g ai/ha
  Plant response rating, Soybean: 0
Soybean (Glycine max); 250 g ai/ha
  Plant response rating, Soybean: 10
Corn (Zea mays); [16]
  Plant response rating (scale of 0 to 100), Corn: 40
Corn (Zea mays); 62 g ai/ha
  Plant response rating, Corn: 65
Corn (Zea mays); 125 g ai/ha
  Plant response rating, Corn: 80
Corn (Zea mays); 250 g ai/ha
  Plant response rating, Corn: 75
[2]; [16]
  Plant response rating (scale of 0 to 100), Morningglory: 10
[2]; 62 g ai/ha
  Plant response rating, Morningglory: 10
[2]; 125 g ai/ha
  Plant response rating, Morningglory: 25
[2]; 250 g ai/ha
  Plant response rating, Morningglory: 30
[3]; [16]
  Plant response rating (scale of 0 to 100), Lambsquarters: 35
[3]; 62 g ai/ha
  Plant response rating, Lambsquarters: 40
[3]; 125 g ai/ha
  Plant response rating, Lambsquarters: 65
[3]; 250 g ai/ha
  Plant response rating, Lambsquarters: 60
[4]; [16]
  Plant response rating (scale of 0 to 100), Foxtail, Giant: 85
[4]; 62 g ai/ha
  Plant response rating, Foxtail, Giant: 85
[4]; 125 g ai/ha
  Plant response rating, Foxtail, Giant: 90
[4]; 250 g ai/ha
  Plant response rating, Foxtail, Giant: 90
[5]; [16]
  Plant response rating (scale of 0 to 100), Crabgrass, Large: 90
[5]; 62 g ai/ha
  Plant response rating, Crabgrass, Large: 95
[5]; 125 g ai/ha
  Plant response rating, Crabgrass, Large: 90
[5]; 250 g ai/ha
  Plant response rating, Crabgrass, Large: 95
[6]; [16]
  Plant response rating (scale of 0 to 100), Johnsongrass: 70
[6]; 62 g ai/ha
  Plant response rating, Johnsongrass: 75
[6]; 125 g ai/ha
  Plant response rating, Johnsongrass: 85
[6]; 250 g ai/ha
  Plant response rating, Johnsongrass: 85
[7]; [16]
  Plant response rating (scale of 0 to 100), Pigweed: 75
[7]; 62 g ai/ha
  Plant response rating, Pigweed: 80
[7]; 125 g ai/ha
  Plant response rating, Pigweed: 85
[7]; 250 g ai/ha
  Plant response rating, Pigweed: 85
[8]; [16]
  Plant response rating (scale of 0 to 100), Velvetleaf: 0
[8]; 62 g ai/ha
  Plant response rating, Velvetleaf: 25
[8]; 125 g ai/ha
  Plant response rating, Velvetleaf: 65
[8]; 250 g ai/ha
  Plant response rating, Velvetleaf: 35
[9]; [16]
  Plant response rating (scale of 0 to 100), Nutsedge, Yellow: 0
[9]; 62 g ai/ha
  Plant response rating, Nutsedge, Yellow: 0
[9]; 125 g ai/ha
  Plant response rating, Nutsedge, Yellow: 0
[9]; 250 g ai/ha
  Plant response rating, Nutsedge, Yellow: 0
[10]; [16]
  Plant response rating (scale of 0 to 100), Barnyardgrass: 85
[10]; 62 g ai/ha
  Plant response rating, Barnyardgrass: 90
[10]; 125 g ai/ha
  Plant response rating, Barnyardgrass: 90
[10]; 250 g ai/ha
  Plant response rating, Barnyardgrass: 90
[11]; [16]
  Plant response rating (scale of 0 to 100), Oilseed Rape: 20
[11]; 62 g ai/ha
  Plant response rating, Oilseed Rape: 70
[11]; 125 g ai/ha
  Plant response rating, Oilseed Rape: 80
[11]; 250 g ai/ha
  Plant response rating, Oilseed Rape: 85
[12]; [16]
  Plant response rating (scale of 0 to 100), Galium: 0
[12]; 62 g ai/ha
  Plant response rating, Galium: 85
[12]; 125 g ai/ha
  Plant response rating, Galium: 85
[12]; 250 g ai/ha
  Plant response rating, Galium: 90
[13]; [16]
  Plant response rating (scale of 0 to 100), Wheat: 0
[13]; 62 g ai/ha
  Plant response rating, Wheat: 0
[13]; 125 g ai/ha
  Plant response rating, Wheat: 10
[13]; 250 g ai/ha
  Plant response rating, Wheat: 35
[14]; [16]
  Plant response rating (scale of 0 to 100), Waterhemp: 80
[14]; 62 g ai/ha
  Plant response rating, Waterhemp: 80
[14]; 125 g ai/ha
  Plant response rating, Waterhemp: 85
[14]; 250 g ai/ha
  Plant response rating, Waterhemp: 85
[15]; [16]
  Plant response rating (scale of 0 to 100), Ryegrass, Italian: 15
[15]; 62 g ai/ha
  Plant response rating, Ryegrass, Italian: 55
[15]; 125 g ai/ha
  Plant response rating, Ryegrass, Italian: 45
[15]; 250 g ai/ha
  Plant response rating, Ryegrass, Italian: 50
